Data from patent publication US20130172320A1, “PYRIDO [4,3-B] INDOLE AND PYRIDO [3,4-B] INDOLE DERIVATIVES AND METHODS OF USE” (priority 2010, published 2013).

Legend:
[1] = biological target: T1, human recombinant adrenergic α2A receptor (Homo sapiens, UniProt P08913); assay: Adrenergic α2A radioligand binding ([3H]MK-912); conditions: compound at 0.1 μM; read-out: Percentage inhibition of ligand binding, Adrenergic (0.1 μM) a2A
T1 construct: expressed in transfected cells; host or cells: insect Sf9 cells
T1 sequence (P08913 1-465): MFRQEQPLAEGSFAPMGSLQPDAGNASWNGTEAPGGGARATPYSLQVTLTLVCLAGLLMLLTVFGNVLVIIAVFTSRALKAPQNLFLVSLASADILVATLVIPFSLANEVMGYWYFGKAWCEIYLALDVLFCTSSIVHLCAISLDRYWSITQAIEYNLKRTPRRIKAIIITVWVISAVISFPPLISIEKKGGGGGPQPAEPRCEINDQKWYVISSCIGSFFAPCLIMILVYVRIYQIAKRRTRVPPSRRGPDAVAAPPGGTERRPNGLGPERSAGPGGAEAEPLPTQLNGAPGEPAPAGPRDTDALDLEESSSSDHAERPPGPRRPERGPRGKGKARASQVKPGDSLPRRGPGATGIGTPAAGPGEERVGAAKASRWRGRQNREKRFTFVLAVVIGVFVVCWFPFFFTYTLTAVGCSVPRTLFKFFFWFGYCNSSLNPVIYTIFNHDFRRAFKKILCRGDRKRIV
Method: To evaluate in radioligand binding assays the activity of compounds of the invention, human recombinant adrenergic α2A receptor expressed in insect Sf9 cells (Uhlen, S. et al, J. Pharmacol. Exp. Ther. 271:1558, 1994) in a modified Tris-HCl buffer (50 mM Tris-HCl, pH 7.4, 12.5 mM MgCl2, 2 mM EDTA) was used. Compounds of invention were incubated with 1 nM […] for 60 min at 25° C. MK912 is (2S-trans)-1,3,4,5′,6,6′,7,12b-octahydro-1′,3′-dimethyl-spiro[2H-benzofuro[2,3-a]quinolizine-2,4′(111)-pyrimidin]-2′(3′H)-one hydrochloride Non-specific binding was estimated in the presence of 10 μM WB-4101 (2-(2,6-Dimethoxyphenoxyethyl)aminomethyl-1,4-benzodioxane hydrochloride). Receptor proteins were filtered and washed, the filters were then counted to determine [^3H]MK-912 specifically bound. Compounds were screened at 1 μM or lower, using 1% DMSO as vehicle. Biochemical assay results are presented as the percent inhibition of specific binding in Table 3.

[2] = biological target: human recombinant histamine H1 receptor (Homo sapiens, UniProt P35367); assay: Histamine H1 radioligand binding ([3H]Pyrilamine); conditions: compound at 0.1 μM; 1.2 nM [3H]Pyrilamine; read-out: Binding data (Percentage inhibition) Histamine H1 (0.1 μM)
Method: To evaluate in radioligand binding assays the activity of compounds of the invention, human recombinant histamine H1 receptor expressed in Chinese hamster ovary (CHO) cells (De Backer, M. et al, Biochem. Biophys. Res. Comm. 197(3):1601, 1993) in a modified Tris-HCl buffer (50 mM Tris-HCl, pH 7.4, 2 mM MgCl2, 100 mM NaCl, 250 mM Sucrose) was used. Compounds of the invention were incubated with 1.2 nM [^3H]Pyrilamine for 180 min at 25° C. Non-specific binding was estimated in the presence of 1 μM Pyrilamine. Receptor proteins were filtered and washed, the filters were then counted to determine [^3H]Pyrilamine specifically bound. Compounds were screened at 1 μM or lower, using 1% DMSO as vehicle. Biochemical assay results are presented as the percent inhibition of specific binding in Table 2.

[3] = biological target: T2, human recombinant serotonin (5-Hydroxytryptamine) 5-HT2A receptor (Homo sapiens, UniProt P28223); assay: Serotonin 5-HT2A radioligand binding ([3H]Ketanserin); conditions: compound at 0.1 μM; read-out: Percentage inhibition of ligand binding, Serotonin (0.1 μM) 5-HT2A
T2 construct: expressed in transfected cells; host or cells: Chinese hamster ovary (CHO) K1 cells
Method: To evaluate in radioligand binding assays the activity of compounds of the invention, human recombinant serotonin (5-Hydroxytryptamine) 5-HT2A receptor expressed in Chinese hamster ovary (CHO) K1 cells (Bonhaus, D. et al, Br. J. Pharmacol. 115:622, 1995; Saucier, C. et al, J. Neurochem. 68:1998, 1997) in a 50 mM Tris-HCl buffer, pH 7.4, was used. Compounds of the invention were incubated with 0.5 nM [^3H]Ketanserin for 60 min at 25° C. Non-specific binding was estimated in the presence of 1 μM Mianserin. Receptor proteins were filtered and washed, the filters were then counted to determine [^3H]Ketanserin specifically bound. Compounds were screened at 1 μM or lower, using 1% DMSO as vehicle. Biochemical assay results are presented as the percent inhibition of specific binding in Table 4.

[4] = biological target: T3, human recombinant serotonin (5-Hydroxytryptamine) 5-HT6 receptor (Homo sapiens, UniProt P50406); assay: Serotonin 5-HT6 radioligand binding ([3H]LSD); conditions: compound at 0.1 μM; read-out: Percentage inhibition of ligand binding, Serotonin (0.1 μM) 5-HT6
T3 construct: expressed in transfected cells; host or cells: human HeLa cells
Method: To evaluate in radioligand binding assays the activity of compounds of the invention, human recombinant serotonin (5-Hydroxytryptamine) 5-HT6 receptor expressed in human HeLa cells (Monsma, F. Jr. et al, Mol. Pharmacol. 43:320, 1993) in a modified Tris-HCl buffer (50 mM Tris-HCl, pH 7.4, 150 mM NaCl, 2 mM Ascorbic Acid, 0.001% BSA) was used. Compounds of the invention were incubated with 1.5 nM [3H]Lysergic acid diethylamide (LSD) for 120 min at 37° C. Non-specific binding was estimated in the presence of 5 μM Serotonin (5-HT). Receptor proteins were filtered and washed, the filters were then counted to determine [3H]LSD specifically bound. Compounds were screened at 1 μM or lower, using 1% DMSO as vehicle. Biochemical assay results are presented as the percent inhibition of specific binding in Table 4.

T3 sequence (P50406 whole entry): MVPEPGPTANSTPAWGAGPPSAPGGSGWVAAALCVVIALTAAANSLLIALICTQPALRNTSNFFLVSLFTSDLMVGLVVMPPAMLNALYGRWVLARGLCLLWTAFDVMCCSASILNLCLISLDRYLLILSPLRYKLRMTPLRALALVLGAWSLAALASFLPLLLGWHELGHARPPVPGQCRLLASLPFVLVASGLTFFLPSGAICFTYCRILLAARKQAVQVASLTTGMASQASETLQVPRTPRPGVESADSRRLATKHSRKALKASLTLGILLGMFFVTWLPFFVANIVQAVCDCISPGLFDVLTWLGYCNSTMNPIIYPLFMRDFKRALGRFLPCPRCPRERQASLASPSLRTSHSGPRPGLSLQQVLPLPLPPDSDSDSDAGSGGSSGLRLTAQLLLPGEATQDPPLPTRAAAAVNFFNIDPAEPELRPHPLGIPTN
Sequence of human recombinant histamine H1 receptor (P35367 whole entry): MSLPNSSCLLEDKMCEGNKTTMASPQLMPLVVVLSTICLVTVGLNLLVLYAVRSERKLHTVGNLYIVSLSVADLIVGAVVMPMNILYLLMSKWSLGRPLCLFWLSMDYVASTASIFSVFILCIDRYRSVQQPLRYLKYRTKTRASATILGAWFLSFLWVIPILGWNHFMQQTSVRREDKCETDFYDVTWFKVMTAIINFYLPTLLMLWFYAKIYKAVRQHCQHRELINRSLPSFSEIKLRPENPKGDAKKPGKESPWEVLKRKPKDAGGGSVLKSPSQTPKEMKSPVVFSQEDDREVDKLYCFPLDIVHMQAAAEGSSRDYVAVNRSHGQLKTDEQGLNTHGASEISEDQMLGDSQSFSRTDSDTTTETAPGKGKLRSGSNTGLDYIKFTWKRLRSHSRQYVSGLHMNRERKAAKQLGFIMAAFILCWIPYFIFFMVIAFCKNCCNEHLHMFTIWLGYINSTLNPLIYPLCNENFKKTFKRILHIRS
T2 sequence (P28223 whole entry): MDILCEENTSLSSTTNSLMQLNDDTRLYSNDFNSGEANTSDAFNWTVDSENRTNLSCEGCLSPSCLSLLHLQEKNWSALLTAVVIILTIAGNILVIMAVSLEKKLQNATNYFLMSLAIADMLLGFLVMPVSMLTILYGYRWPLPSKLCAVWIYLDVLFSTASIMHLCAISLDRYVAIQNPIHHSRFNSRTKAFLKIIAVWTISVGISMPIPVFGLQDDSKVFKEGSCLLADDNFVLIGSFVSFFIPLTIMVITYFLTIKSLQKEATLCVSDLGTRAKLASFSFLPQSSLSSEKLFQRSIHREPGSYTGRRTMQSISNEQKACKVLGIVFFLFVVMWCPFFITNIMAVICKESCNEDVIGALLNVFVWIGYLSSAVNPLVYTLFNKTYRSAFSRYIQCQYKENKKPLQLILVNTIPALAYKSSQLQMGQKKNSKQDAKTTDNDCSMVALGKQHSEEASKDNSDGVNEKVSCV

Row | Structure (SMILES) | inhibition at 0.1 µM [1] | inhibition at 0.1 µM [2] | inhibition at 0.1 µM [3] | inhibition at 0.1 µM [4]
1 | C#CCC1(C)CN(C)Cc2c1n(C)c1ccc(C)cc21 (centres unmarked) [Compound 47, 2,4,5,8-tetramethyl-4-(prop-2-ynyl)-2,3,4,5-tetrahydro-1H-pyrido[4,3-b]indole] | 15% | 49% | 32% | 14%
2 | Cc1ccc2c(c1)c1c(n2C)C(C)(CCc2nc(-c3ccccc3)cs2)CN(C)C1 (centres unmarked) [Compound 48] | 2% | 89% | 39% | 22%
